This is an account of results in patent publication US4618598A, “Method of regulating hormone function or release” (Duke University, priority 1982, dated 1986).

For assay [1], the system named is pituitary cell cultures. As to conditions: for effect on conjugate-stimulated LH release: Example 4, 2 mM EGTA (1.25 mM extracellular calcium), five micromolar Pimozide; for effect on LH release stimulated by dimer plus antibody: Example 7, 5 μM Pimozide or 2 mM EGTA, all titers, 1.5×10^-11 M dimer. As to the method: (§1) Luteinizing hormone release from pituitary cell cultures is dependent upon the binding of the gonadotropin releasing hormone to its specific cell surface receptor. […] In FIG. 2 the antagonist activity of GnRH-Ant was measured in a cell culture bioassay. Two day pituitary cell cultures were incubated with 10^-8 M, 10^-9 M, or no GnRH at the indicated concentration of antagonist. After the 5 h incubation period, the medium was assayed for LH by RIA using rat LH antisera (LHS-4), highly purified rat LH for labeling (LH I-4), and rat LH standard (LH-RP-1) which were made available by a grant from the NIAMDD Hormone Distribution Office (prepared by Dr. A. Parlow, Torrance, CA.). The assay was performed as described below, except that second antibody was used to separate the bound and free [^ 125 -I]-LH.
Cell cultures were prepared, by collagenase-hyaluronidase dispersion of pituitaries from 25-day-old female weanling rats. The cultures were then incubated for 2 days at 37 C. in culture plates. […] After the culture period, the cells were washed free of debris and sera with medium 199 containing 0.3% bovine serum albumin (Cohn fraction V; 199/BSA) and incubated with the indicated compounds. Medium 199 normally contains 1 mM Ca^2+. Cells were incubated in 1.0 ml medium for 3 h. After the incubation period, the supernatant fraction was removed from the cells (attached to the culture dish) with a Pasteur pipette and assayed for LH by RIA employing rat LH antisera (LHS-5), highly purified rat LH for labeling (LH-I-6), and rat LH standard (LH-RP-1), all of which were made available by the NIAMMD Hormone Distribution Office and were prepared by Dr. A. Parlow (Torrance, CA). The assay was performed, using immobile protein A to separate the bound and free [^125 I]LH. […] LH release was normalized by DNA determination in order to correct for slight differences in cell numbers in different assay wells.
Rabbit anti-D-Lys^6 -GnRH (antiserum No. 5111 prepared by immunization with D-Lys^6 coupled to bovine serum albumin (BSA) with glutaraldehyde) was added without additional purification in an amount sufficient to bind 8-10% of the dimer. The antibody was added in a final volume of 50 μl (with Medium 199 containing 0.3% BSA and 2 mg NaN3). The reaction ws allowed to proceed 10 h at room temperature and then 2 days at 10° C. Immediately before the cell bioassay, the solution was applied to a 12 ml calibrated G-75 column (10×260 mm) equilibrated in 199/BSA. Twenty drop fractions (about 300 μl) were collected and brought to 1.0 ml with 199/BSA. […] Where monovalent antibody is specified, the reduced pepsin fragment of antibody (No. 5111) was substituted for intact antibody in the conjugation described above. In this case ammonium sulfate fractionated IgG was dissolved in 50 mM acetate buffer, pH 4.5 and digested with pepsin (Worthington Biochemical Corp.) at an enzyme:substrate ratio of 1:100 for 50 min at […]. Digestion was stopped by neutralization with 1M Tris-HCL, pH 8.0 and 0.1N NaOH. Precipitated material was removed by centrifugation and 2-mercaptoethanol added to the supernatant at a final concentration of 0.75 mM. The solution was maintained at room temperature for 1 h, then cooled in ice cold water.

Assay [2] concerns the target T1, gonadotropin releasing hormone receptor (Rattus norvegicus, UniProt P30969).
T1 construct: gonadotropin releasing hormone sites on a plasma membrane fraction from the rat pituitary; from tissue; host or cells: rat pituitary plasma membrane fraction
T1 sequence (P30969 1-327): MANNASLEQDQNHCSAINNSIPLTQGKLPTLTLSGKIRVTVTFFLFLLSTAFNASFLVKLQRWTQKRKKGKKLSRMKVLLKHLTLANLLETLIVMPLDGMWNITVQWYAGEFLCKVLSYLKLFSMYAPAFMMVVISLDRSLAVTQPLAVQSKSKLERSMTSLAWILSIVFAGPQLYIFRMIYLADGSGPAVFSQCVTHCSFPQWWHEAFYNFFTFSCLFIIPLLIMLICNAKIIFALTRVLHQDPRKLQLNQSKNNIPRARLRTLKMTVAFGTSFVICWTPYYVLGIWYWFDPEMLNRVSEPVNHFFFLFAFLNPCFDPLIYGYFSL
The assay can be described thus: Competitive binding against [125-I] Buserelin on pituitary plasma membrane fraction.
Description: [125-I]-Tyr^5 -D-ser(tert-butyl)^6 -desGly^10 -Pro^9 ethylamid-GnRH ([125-I] Buserelin, Hoechst Pharmaceuticals) binds to the gonadotropin releasing hormone receptor sites on the plasma membrane. The ability to compete with the iodine labelled Buserelin indicates the relative affinity for the receptor. […] The data are expressed in terms of equivalents of releasing hormone analogue showing the radioligand bound in the presence of the indicated analogue concentration (B) compared to that bound in the absence of added analog (Bo).
The binding assay was conducted in polypropylene microfuge tubes which were precoated overnight with 1% BSA. The assay contained approximately 20,000 cpm of ^125 I-labeled Buserelin and 30 μg of membrane protein, in the presence or absence of 10^-5 M GnRH. In some competition experiments, the amount of added GnRH was altered as indicated. To determine the specificity of binding, des-pGlu^1 -GnRH (Bachem, Torrance, Calif.), D-Ala^6 -GnRH (Peninsula Laboratories, Inc., San Carlos, Calif.), D-Phe^2 -D-Ala^6 -GnRH (Wyeth Laboratories, Philadelphia, Pa.) TRH (Peninsula Laboratories), arg^8 -vasopressin (Calbiochem, San Diego, Calif.), or somatostatin (Beckman Instruments, Fullerton, Calif.) were added at the indicated concentrations. The final assay volume was 500 μl adjusted with 10 mM Tris-0.1% BSA. Following a 2-hr incubation on ice, bound and free hormone were separated by centrifugation. (Eppendorf microfuge, 12,800×g, 5 min) through 100 μl of 10% (w/v) sucrose. The tips of the tubes were cut off and radioactivity was determined by γ-spectroscopy. […] For some kinetic studies, bound hormone and free hormone were separated by the method of rapid filtration. Incubations were performed in triplicate. Specific binding was determined by subtracting nonspecific binding (in the presence of excess unlabeled GnRH) from total binding (no GnRH). Scatchard analysis of the binding data, using linear regression analysis to establish best-line fit, was used to determine the number and binding affinity of GnRH receptors. […]

Assay [3] deals with pituitary cell cultures. The assay can be described thus: Inhibition of GnRH-stimulated LH release from pituitary cell cultures (antagonist function). Format: cell-based, rat. As to the method: as §1, with “FIG. 2 illustrates the ability of the gonadotropin releasing hormone antagonist to inhibit gonadotropin releasing hormone-stimulated LH release from pituitary cell cultures. Luteinizing” for “Luteinizing”, “receptor. The GnRH-antagonist binds to this receptor and blocks stimulation by GnRH.” for “receptor.”
Cell cultures were prepared, by collagenase-hyaluronidase dispersion of pituitaries from 25-day-old female weanling rats. The cultures were then incubated for 2 days at 37 C. in culture plates. […]

As to `CC(C)C[C@H](NC(=O)[C@@H](CCCCNC(=O)CCC(=O)OCCOC(=O)CCC(=O)NCCCC[C@@H](NC(=O)[C@H](Cc1ccc(O)cc1)NC(=O)[C@H](CO)NC(=O)[C@H](Cc1c[nH]c2ccccc12)NC(=O)[C@H](Cc1c[nH]cn1)NC(=O)[C@@H]1CCC(=O)N1)C(=O)N[C@@H](CC(C)C)C(=O)N[C@@H](CCCNC(=N)N)C(=O)N1CCC[C@H]1C(=O)NCC(N)=O)NC(=O)[C@H](Cc1ccc(O)cc1)NC(=O)[C@H](CO)NC(=O)[C@H](Cc1c[nH]c2ccccc12)NC(=O)[C@H](Cc1c[nH]cn1)NC(=O)[C@@H]1CCC(=O)N1)C(=O)N[C@@H](CCCNC(=N)N)C(=O)N1CCC[C@H]1C(=O)NCC(N)=O` [(D-Lys^6 -GnRH)2 -EGS dimer], the “ED50 of LH release” value in assay [1] was 800 pM.

For `O=C(O)CN(CCOCCOCCN(CC(=O)O)CC(=O)O)CC(=O)O` [EGTA], in assay [1], the “effect on conjugate-stimulated LH release” value is “blocked” and the “effect on LH release stimulated by dimer plus antibody” value is reported as “diminished LH release to near basal”.

With `O=c1[nH]c2ccccc2n1C1CCN(CCCC(c2ccc(F)cc2)c2ccc(F)cc2)CC1` [Pimozide], in assay [1], the “effect on conjugate-stimulated LH release” value is given as “blocked” and the “effect on LH release stimulated by dimer plus antibody” value is listed as “diminished LH release to near basal”. “GnRH: natural sequence gonadotropin releasing hormone (QHWSYGLRPG; Gonadoliberin-1; UniProt P01148 24-33, looked up)”: the “LH release in response to GnRH” value in assay [1] (Example 4, 10^-7 moles GnRH, five hour period) was 13.6±0.9 ng LH/20 μL of medium. Further, the “concentration at which maximum LH release is reached” value in assay [1] (FIG. 6) is 10^-7 molar. In assay [2], `CCNC(=O)[C@@H]1CCCN1C(=O)[C@H](CCCNC(=N)N)NC(=O)[C@H](CC(C)C)NC(=O)[C@@H](COC(C)(C)C)NC(=O)[C@H](Cc1ccc(O)cc1)NC(=O)[C@H](CO)NC(=O)[C@H](Cc1c[nH]c2ccccc12)NC(=O)[C@H](Cc1cnc[nH]1)NC(=O)[C@@H]1CCC(=O)N1` [Buserelin] came in with an IC50 of roughly 100 pM. For the compound “D-pyroglumatic acid-D-phenylalanyl-D-tryptophanyl-D-lysyl-GnRH [GnRH-antagonist]”, the “binding affinity compared with natural GnRH” value in assay [2] is given as “higher affinity than natural sequence releasing hormone”. Besides, the “binding affinity relative to natural sequence gonadotropin releasing hormone” value in assay [2] (printed as less affinity than natural GnRH, in equivalents of monomeric hormone) is given as “about 50 fold”. In addition, in assay [3], the “antagonist action on GnRH-stimulated LH release” value was “blocks the action of both 10^-8 molar and 10^-9 molar GnRH”. Also, the IC50 in assay [3] (GnRH-stimulated (10^-9 molar), pituitary cultures, read-out: 50% inhibitory concentration (IC50) of GnRH-stimulated gonadotropin release) amounted to 200 pM. Consider `CC(C)C[C@H](NC(=O)[C@@H](CCCCN)NC(=O)[C@H](Cc1ccc(O)cc1)NC(=O)[C@H](CO)NC(=O)[C@H](Cc1c[nH]c2ccccc12)NC(=O)[C@H](Cc1c[nH]cn1)NC(=O)[C@@H]1CCC(=O)N1)C(=O)N[C@@H](CCCNC(=N)N)C(=O)N1CCC[C@H]1C(=O)NCC(N)=O` [D-Lys^6 -GnRH, pyro glutamic acid-histidine-tryptophan-serine-tyrosine-D-lysine-leucine-arginine-proline-glycine-NH2], for which the “stimulated LH release” value in assay [1] (Example 7, 10^-7 M) amounted to 58±6 ng/100 ng DNA.
